Each structure is given as a SMILES string.

This is an account of results in patent publication US10858335B2 (Rigel Pharmaceuticals, Inc., priority 2014, dated 2020).

The subject of one assay is GDF8 signaling (p-SMAD-3 (Ser423/425)). The assay can be described thus: AlphaScreen SureFire SMAD3 (p-Ser423/425) assay, GDF8-stimulated cells (GDF pSMAD). The assay is classed as cell-based. As to conditions: Mus musculus, MPC-11, GDF8-stimulated pSMAD3, MPC11; tested as the salt form given; read-out: GDF pSMAD (MPC11) (μM), inhibition of GDF8 signaling.
As to `Nc1ncnc2ccc(-c3cccnc3-c3cc(O)c(F)cc3Cl)cc12` [compound 1020, 5-(3-(4-aminoquinazolin-6-yl)pyridin-2-yl)-4-chloro-2-fluorophenol], the IC50 was determined as 4.77 µM.
On the same count and under the same terms, then `c1cnc(-c2cccc3c2OCC3)c(-c2ccc3ncsc3c2)c1` [compound 1076], with 9.67 µM.
In the case of `Nc1ncnc2ccc(-c3cccnc3-c3cc(O)ccc3F)cc12` [compound 1006, 3-(3-(4-aminoquinazolin-6-yl)pyridin-2-yl)-4-fluorophenol], the IC50 came out at 0.735 µM.
Regarding `Cc1ccc(F)c(-c2ncccc2-c2ccc3ncnc(N)c3c2)c1` [compound 1004, 6-(2-(2-fluoro-5-methylphenyl)pyridin-3-yl)quinazolin-4-amine], the IC50 amounted to 0.203 µM.
Regarding `Nc1ncnc2ccc(-c3cccnc3-c3cc(OC(F)(F)F)ccc3Cl)cc12` [compound 1009, 6-(2-(2-chloro-5-(trifluoromethoxy)phenyl)pyridin-3-yl)quinazolin-4-amine], the IC50 amounted to 3.29 µM.

Staying with this assay, now noted: Mus musculus, MPC-11, MPC11; GDF8-stimulated; p-SMAD3 AlphaScreen; read-out: GDF pSMAD (MPC11) (inhibition of GDF8 signaling).
On to `Cc1cc(-c2ncc(NCc3ccc(CN4CCOCC4)cc3)cc2-c2ccc3ncsc3c2)ccc1F` [compound 358, 5-(Benzo[d]thiazol-6-yl)-6-(4-fluoro-3-methylphenyl)-N-(4-(morpholinomethyl)benzyl)pyridin-3-amine], for which the IC50 was 0.863 µM.
In the case of `Fc1ccc(-c2ncccc2-c2ccc3ncc(-c4ncn[nH]4)n3c2)cc1Cl` [compound 844, 6-(2-(3-Chloro-4-fluorophenyl)pyridin-3-yl)-3-(1H-1,2,4-triazol-5-yl)imidazo[1,2-a]pyridine], the IC50 stood at 0.0324 µM.
The same measure, in the same setting: then `Cc1cc(-c2ncccc2-c2ccc3cnccc3c2)ccc1F` [compound 249, 6-(2-(4-Fluoro-3-methylphenyl)pyridin-3-yl)isoquinoline], with 8.83 µM; and `Cc1cc(-c2ncc(NCc3ccc(-c4cccnc4)nc3)cc2-c2ccc3ncsc3c2)ccc1F` [compound 328, N-([2,3′-Bipyridin]-5-ylmethyl)-5-(benzo[d]thiazol-6-yl)-6-(4-fluoro-3-methylphenyl)pyridin-3-amine], with 2.5 µM.
Regarding `c1cc(-c2ncccc2-c2ccn3nccc3n2)cc(C2CC2)c1` [compound 912, 5-(2-(3-Cyclopropylphenyl)pyridin-3-yl)pyrazolo[1,5-a]pyrimidine], the IC50 stood at 0.112 µM.
For the compound `Cc1cc(-c2ncccc2-c2ccc3[nH]nc(N)c3c2)ccc1F` [compound 788, 5-(2-(4-Fluoro-3-methylphenyl)pyridin-3-yl)-1H-indazol-3-amine], the IC50 worked out at 4.04 µM.
Take `Cc1cccc(-c2ncccc2-c2cc3cn[nH]c3cc2C)c1` [Compound 174, 6-Methyl-5-(2-m-tolylpyridin-3-yl)-1H-indazole]: the IC50 worked out at 1.18 µM.
`COc1cc(CNc2cnc(-c3ccc(F)c(C)c3)c(-c3ccc4ncsc4c3)c2)ccc1OCCO` [compound 356, 2-(4-(((5-(Benzo[d]thiazol-6-yl)-6-(4-fluoro-3-methylphenyl)pyridin-3-yl)amino)methyl)-2-methoxyphenoxy)ethan-1-ol]: the IC50 was 0.965 µM.
For `Oc1ccc(-c2ncccc2-c2ccc3[nH]ncc3c2)cc1` [Compound 121, 4-(3-(1H-Indazol-5-yl)pyridin-2-yl)phenol], the IC50 stood at 5.35 µM.
For `Cc1cc(-c2ncccc2-c2ccc3ncc(C(=O)N[C@H]4CCCC[C@@H]4N)n3c2)ccc1F` [compound 680, N-((1S,2S)-2-Aminocyclohexyl)-6-(2-(4-fluoro-3-methylphenyl)pyridin-3-yl)imidazo[1,2-a]pyridine-3-carboxamide], the IC50 came to 2.13 µM.
For `Fc1ccc(-c2ncccc2-c2ccc3ncsc3c2)cc1F` [compound 661, 6-(2-(3,4-Difluorophenyl)pyridin-3-yl)benzo[d]thiazole], the IC50 came to 1.84 µM.
In the case of `COc1cnc(-c2cc(Cl)c(F)cc2F)c(-c2ccn3ncnc3c2)c1` [compound 857, 7-(2-(5-Chloro-2,4-difluorophenyl)-5-methoxypyridin-3-yl)-[1,2,4]triazolo[1,5-a]pyridine], the IC50 was determined as 1.85 µM.
Consider `Cc1cc(-c2ncccc2-c2ccc3ccnc(N)c3c2)ccc1F` [compound 298, 7-(2-(4-Fluoro-3-methylphenyl)pyridin-3-yl)isoquinolin-1-amine], for which the IC50 came to 0.999 µM.
With `Cc1cccc(-c2ncccc2-c2ccc3ncn(C)c3c2)c1` [Compound 186, 1-methyl-6-(2-m-tolylpyridin-3-yl)-1H-benzo[d]imidazole], the IC50 was determined as 0.3 µM.
Take `Fc1cc(F)c(-c2ncccc2-c2ccc3ncnn3c2)cc1Cl` [compound 749, 6-(2-(5-Chloro-2,4-difluorophenyl)pyridin-3-yl)-[1,2,4]triazolo[1,5-a]pyridine]: the IC50 came out at 0.298 µM.
With `Cc1cccc(-c2ncccc2-c2ccc3c(=O)nc[nH]c3c2)c1` [compound 349, 7-(2-(m-Tolyl)pyridin-3-yl)quinazolin-4(1H)-one], the IC50 was found to be 1.01 µM.
As to `Cc1cc(-c2ncccc2-c2ccc3ncc(C(=O)NC4CCN(C(C)C)CC4)n3c2)ccc1F` [compound 700, 6-(2-(4-Fluoro-3-methylphenyl)pyridin-3-yl)-N-(1-isopropylpiperidin-4-yl)imidazo[1,2-a]pyridine-3-carboxamide], the IC50 is 0.138 µM.
On the same count and under the same terms, then `Fc1cc(F)c(-c2ncccc2-c2ccc3ncsc3c2)cc1Cl` [compound 718, 6-(2-(5-Chloro-2,4-difluorophenyl)pyridin-3-yl)benzo[d]thiazole], with 0.314 µM; and `Nc1ncnc2ccc(-c3cccnc3-c3ccc(F)cc3Cl)cc12` [compound 499, 6-(2-(2-Chloro-4-fluorophenyl)pyridin-3-yl)quinazolin-4-amine], with 6.52 µM.
The same measure, in the same setting: then `Cc1cccc(-c2ncccc2-c2ccc3nncn3c2)c1` [Compound 162, 6-(2-m-Tolylpyridin-3-yl)-[1,2,4]triazolo[4,3-a]pyridine], with 5.66 µM.
As to `Cc1cc(-c2ncccc2-c2ccc3ncnc(NCCC4CCN(C)CC4)c3c2)ccc1F` [compound 422, 6-(2-(4-Fluoro-3-methylphenyl)pyridin-3-yl)-N-(2-(1-methylpiperidin-4-yl)ethyl)quinazolin-4-amine], the IC50 was 1.28 µM.
Same read-out and setting: then `CCOc1cnc(-c2ccc(F)c(F)c2)c(-c2ccc3[nH]ncc3c2)c1` [Compound 7, 5-(5-Ethoxy-2-(3,4-difluorophenyl)pyridin-3-yl)-1H-indazole], with 23.1 µM.
On the same count and under the same terms, then `Cc1cc(-c2ncccc2-c2ccn3ncc(C(=O)NC4CCN(C)CC4)c3c2)ccc1F` [compound 655, 5-(2-(4-Fluoro-3-methylphenyl)pyridin-3-yl)-N-(1-methylpiperidin-4-yl)pyrazolo[1,5-a]pyridine-3-carboxamide], with 0.245 µM; and `Cc1cc(-c2ncccc2-c2cc3cn[nH]c3cc2C)ccc1F` [Compound 173, 5-(2-(4-Fluoro-3-methylphenyl)pyridin-3-yl)-6-methyl-1H-indazole], with 1.83 µM.
On to `Clc1ccc(Cl)c(-c2ncccc2-c2ccn3ncnc3c2)c1` [compound 873, 7-(2-(2,5-Dichlorophenyl)pyridin-3-yl)-[1,2,4]triazolo[1,5-a]pyridine], for which the IC50 stood at 1.19 µM.
On to `Cc1cc(-c2ncccc2-c2ccc3nccnc3c2)ccc1F` [compound 539, 6-(2-(4-Fluoro-3-methylphenyl)pyridin-3-yl)quinoxaline], for which the IC50 is 0.699 µM.
In the case of `FC(F)Oc1cccc(-c2ncccc2-c2ccc3ncsc3c2)c1` [compound 961, 6-(2-(3-(Difluoromethoxy)phenyl)pyridin-3-yl)benzo[d]thiazole], the IC50 amounted to 0.129 µM.
As to `Cc1cc(-c2ncc(CN3CCOCC3)cc2-c2ccc3nccnc3c2)ccc1F` [compound 225, 4-((6-(4-Fluoro-3-methylphenyl)-5-(quinoxalin-6-yl)pyridin-3-yl)methyl)morpholine], the IC50 was 9.46 µM.
As to `Cc1cc(-c2ncccc2-c2ccc3ncnc(NC(C)C)c3c2)ccc1F` [compound 400, 6-(2-(4-Fluoro-3-methylphenyl)pyridin-3-yl)-N-isopropylquinazolin-4-amine], the IC50 turned out to be 5.81 µM.
Still for that read-out and setting: then `Nc1ncnc2ccc(-c3cccnc3-c3ccc(F)cc3F)cc12` [compound 455, 6-(2-(2,4-Difluorophenyl)pyridin-3-yl)quinazolin-4-amine], with 1.16 µM.
As for `Cc1cc(-c2ncccc2-c2ccn3ncc(C(=O)NCCN)c3c2)ccc1F` [compound 683, N-(2-Aminoethyl)-5-(2-(4-fluoro-3-methylphenyl)pyridin-3-yl)pyrazolo[1,5-a]pyridine-3-carboxamide], the IC50 was found to be 0.234 µM.
In the case of `N#Cc1cnc2ccc(-c3cccnc3-c3ccc(F)cc3)cn12` [compound 625, 6-(2-(4-Fluorophenyl)pyridin-3-yl)imidazo[1,2-a]pyridine-3-carbonitrile], the IC50 is 7.79 µM.
In the case of `Cc1cc(-c2ncc(NC3CC3)cc2-c2ccc3[nH]ncc3c2)ccc1F` [compound 212, N-Cyclopropyl-6-(4-fluoro-3-methylphenyl)-5-(1H-indazol-5-yl)pyridin-3-amine], the IC50 was 18.4 µM.
Same read-out and setting: for `CC(=O)c1cnc2ccc(-c3cccnc3-c3cccc(Cl)c3)cn12` [compound 763, 1-(6-(2-(3-Chlorophenyl)pyridin-3-yl)imidazo[1,2-a]pyridin-3-yl)ethan-1-one] the value was 0.52 µM; for `Fc1ccc(-c2ncccc2-c2ccc3nccn3c2)cc1Cl` [compound 687, 6-(2-(3-Chloro-4-fluorophenyl)pyridin-3-yl)imidazo[1,2-a]pyridine], 0.172 µM.
Regarding `[2H]C([2H])([2H])c1cccc(-c2ncccc2-c2ccn3cncc3c2)c1` [compound 604, 7-(2-(3-(Methyl-d3)phenyl)pyridin-3-yl)imidazo[1,5-a]pyridine], the IC50 came to 8.52 µM.
On to `CC(C)c1cccc(-c2ncccc2-c2cnc3[nH]ncc3c2)c1` [Compound 167, 5-(2-(3-Isopropylphenyl)pyridin-3-yl)-1H-pyrazolo[3,4-b]pyridine], for which the IC50 is 17.5 µM.
